system: UT7/EPO cells; experiment: Proliferation of mother cell line UT7/EPO expressing no TPO receptor (WST-8); type: cell-based, human; details: FIG. 2, 4 days incubation
Experimental: (§1) UT7/EPO-mpl is a stable transformed cell line obtained by introducing into human leukemic cell line UT7/EPO a vector that induces expression of human TPO receptor (c-mp1) under control of cytomegalovirus immediate-early promoter by the method of Takatoku et al. (J. Biol. Chem., 272:7259-7263 (1997)). […] These two cell lines were subcultured in Iscove's modified Dulbecco's medium (IMDM; GIBCO) containing 10% fetal bovine serum (FBS; Thermo Electron or BioWest) using a CO2 incubator (5% CO2, 37° C.).
The subcultured cells described above were washed twice with phosphate buffered saline (PBS) and suspended in IMDM containing 10% FBS at a cell density of 6×10^4 cells/ml. The cell suspension was transferred to a 96-well tissue culture plate (CORNING) in 100-μl aliquots. Then either TPO (Pepro Tech EC) or the compound of Synthetic Example 4 dissolved in dimethyl sulfoxide (DMSO) was diluted 83-fold with IMDM containing 10% FBS and added to the aforementioned cell suspension in 20-μl aliquots. The cell suspension was incubated in a CO2 incubator (5% CO2, 37° C.) for 4 days. Cell proliferation was assayed using WST-8 reagent (Kishida Chemical Co., Ltd.) according to instructions by the manufacturer. […] The formazan pigment generated was detected by measuring the absorbance at 450 nm with a 96-well microplate reader (Nihon Molecular Devices, Spectramax 190).

CC(=NNC(=S)NCC(=O)O)c1csc(-c2ccc(Cl)c(Cl)c2)c1O [Synthetic Example 4, 2-[(2-{1-[5-(3,4-dichlorophenyl)-4-hydroxythiophen-3-yl]-etylidene}-hydrazinocarbonothioyl)amino]acetic acid] was tested, and the “effect on proliferation of UT7/EPO, the mother cell line” value was “no effect”.

target: T1, human TPO receptor (c-mp1) (Homo sapiens, UniProt P40238); experiment: Stimulation of proliferation of TPO-dependent cell line UT7/EPO-mpl (WST-8); type: cell-based; details: FIG. 1; 4 days incubation, WST-8, absorbance at 450 nm
T1 construct: expressed in transfected cells
T1 sequence (P40238 26-635): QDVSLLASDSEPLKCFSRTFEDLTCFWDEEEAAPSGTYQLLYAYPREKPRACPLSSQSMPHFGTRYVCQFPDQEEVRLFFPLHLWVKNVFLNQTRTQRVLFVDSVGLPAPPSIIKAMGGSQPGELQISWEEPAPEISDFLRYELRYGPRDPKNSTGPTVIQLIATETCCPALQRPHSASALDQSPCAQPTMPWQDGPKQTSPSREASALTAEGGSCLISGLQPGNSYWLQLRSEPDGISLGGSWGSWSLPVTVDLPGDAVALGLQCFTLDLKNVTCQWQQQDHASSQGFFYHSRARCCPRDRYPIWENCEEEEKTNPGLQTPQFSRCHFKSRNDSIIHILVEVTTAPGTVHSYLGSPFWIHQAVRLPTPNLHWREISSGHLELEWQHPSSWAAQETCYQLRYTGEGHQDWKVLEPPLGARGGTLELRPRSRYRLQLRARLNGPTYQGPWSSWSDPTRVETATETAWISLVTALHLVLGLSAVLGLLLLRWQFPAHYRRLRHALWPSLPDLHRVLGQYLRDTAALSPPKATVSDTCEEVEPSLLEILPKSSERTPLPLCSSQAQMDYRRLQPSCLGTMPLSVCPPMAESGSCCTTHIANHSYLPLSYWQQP
Experimental: The reactivity of the compound of Synthetic Example 4 of the present invention with thrombopoietin (TPO) receptor was assayed using a human leukemic cell line, UT7/EPO-mpl.
as §1
The subcultured cells described above were washed twice with phosphate buffered saline (PBS) and suspended in IMDM containing 10% FBS at a cell density of 6×10^4 cells/ml. The cell suspension was transferred to a 96-well tissue culture plate (CORNING) in 100-μl aliquots. Then either TPO (Pepro Tech EC) or the compound of Synthetic Example 4 dissolved in dimethyl sulfoxide (DMSO) was diluted 83-fold with IMDM containing 10% FBS and added to the aforementioned cell suspension in 20-μl aliquots. The cell suspension was incubated in a CO2 incubator (5% CO2, 37° C.) for 4 days. Cell proliferation was assayed using WST-8 reagent (Kishida Chemical Co., Ltd.) according to instructions by the manufacturer. A 10-μl aliquot of 5 mM WST-8 reagent solution was added to each well of the tissue culture plate, and the plate was incubated at 37° C. for 4 h. The formazan pigment generated was detected by measuring the absorbance at 450 nm with a 96-well microplate reader (Nihon Molecular Devices, Spectramax 190).
The compounds of the following Synthetic Examples were tested according to the method of Assay Example 1 to determine the concentration of each compound that yields a growth rate corresponding to 50% of the growth of human leukemic cell line UT-7/EPO-mpl observed in the presence of 10 ng/ml TPO (EC50).

With CC(=NNC(=S)NCC(=O)O)c1csc(-c2ccc(Cl)c(Cl)c2)c1O [Synthetic Example 4, 2-[(2-{1-[5-(3,4-dichlorophenyl)-4-hydroxythiophen-3-yl]-etylidene}-hydrazinocarbonothioyl)amino]acetic acid] the “proliferation of TPO-responsive UT7/EPO-mpl cells” value was “stimulated by the compound of Synthetic Example 4 in a concentration-dependent manner”.

same assay, conditions: concentration that yields a growth rate corresponding to 50% of the growth of UT-7/EPO-mpl observed in the presence of 10 ng/ml TPO; 4 days incubation

For CC(=NNC(=S)NCC(=O)O)c1csc(-c2ccc(Cl)c(Cl)c2)c1O [Synthetic Example 4, 2-[(2-{1-[5-(3,4-dichlorophenyl)-4-hydroxythiophen-3-yl]-etylidene}-hydrazinocarbonothioyl)amino]acetic acid], the EC50 was 5.6 ng/mL.

same assay, conditions: concentration that yields a growth rate corresponding to 50% of the growth of UT-7/EPO-mpl observed in the presence of 10 ng/ml TPO; 4 days incubation; read-out: EC50 (converted)

First: COC(=O)C1CCN(C(=S)NN=C(C)c2csc(-c3ccc(Cl)c(Cl)c3)c2O)CC1 [Synthetic Example 1, methyl 1-{1-[5-(3,4-dichlorophenyl)-4-hydroxythiophen-3-yl]-ethylidene-hydrazinothiocarbonyl}-piperidine-4-carboxylate]
Second: CC(=NNC(=S)N1CCC(C(=O)O)CC1)c1csc(-c2ccc(Cl)c(Cl)c2)c1O [Synthetic Example 2, 1-{1-[5-(3,4-dichlorophenyl)-4-hydroxythiophen-3-yl]-ethylidene-hydrazinothiocarbonyl}-piperidine-4-carboxylic acid]
The EC50 of the first is 9.4-fold higher: 63.7 nM for the first, 6.77 nM for the second.

COC(=O)CNC(=S)NN=C(C)c1csc(-c2ccc(Cl)c(Cl)c2)c1O [Synthetic Example 3, methyl 2-[(2-{1-[5-(3,4-dichlorophenyl)-4-hydroxythiophen-3-yl]-ethylidene}-hydrazinocarbonothioyl)amino]acetate] and COC(=O)CCNC(=S)NN=C(C)c1csc(-c2ccc(Cl)c(Cl)c2)c1O [Synthetic Example 5, methyl 3-[(2-{1-[5-(3,4-dichlorophenyl)-4-hydroxythiophen-3-yl]-ethylidene}-hydrazinocarbonothioyl)amino]propionate] are within 1.5-fold of each other in EC50: 55.5 nM for the first, 67.2 nM for the second.

First: CC(=NNC(=S)NCCC(=O)O)c1csc(-c2ccc(Cl)c(Cl)c2)c1O [Synthetic Example 6, 3-[(2-{1-[5-(3,4-dichlorophenyl)-4-hydroxythiophen-3-yl]-ethylidene}-hydrazinocarbonothioyl)amino]propionic acid]
Second: COCCNC(=S)NN=C(C)c1csc(-c2ccc(Cl)c(Cl)c2)c1O [Synthetic Example 7, 1-(2-{1-[5-(3,4-dichlorophenyl)-4-hydroxythiophen-3-yl]-ethylidene}-hydrazinocarbonothioyl)amino-2-methoxyethane]
The EC50 of the first is 2.1-fold lower: 32.4 nM for the first, 66.9 nM for the second.

First: COC(=O)C1CCN(C(=S)NN=C(C)c2csc(-c3ccc(Br)cc3)c2O)CC1 [Synthetic Example 8, methyl 1-{1-[5-(4-bromophenyl)-4-hydroxy-thiophen-3-yl]-ethylidene-hydrazinothiocarbonyl}-piperidine-4-carboxylate]
Second: CC(=NNC(=S)N1CCC(C(=O)O)CC1)c1csc(-c2ccc(Br)cc2)c1O [Synthetic Example 9, 1-{1-[5-(4-bromophenyl)-4-hydroxy-thiophen-3-yl]-ethylidene-hydrazinothiocarbonyl}-piperidin-4-carboxylic acid]
The EC50 of the first is 11-fold higher: 50.4 nM for the first, 4.77 nM for the second.

CC(=NNC(=S)N1CCC(C(=O)O)CC1)c1csc(-c2ccc(C(F)(F)F)cc2)c1O [Synthetic Example 10, 1-{1-[4-hydroxy-5-(4-trifluoromethylphenyl)-thiophen-3-yl]-ethylidene-hydrazinothiocarbonyl}-piperidine-4-carboxylic acid] and CC(=NNC(=S)N1CCC(C(=O)O)CC1)c1csc(-c2ccc(OC(F)(F)F)cc2)c1O [Synthetic Example 11, 1-{1-[5-(4-trifluoromethoxyphenyl)-4-hydroxythiophen-3-yl]-ethylidene-hydrazinothiocarbonyl}-piperidine-4-carboxylic acid] are within 1.5-fold of each other in EC50: 5.73 nM for the first, 5.95 nM for the second.

CC(=NNC(=S)N1CCC(C(=O)O)CC1)c1csc(-c2ccc(Cl)cc2)c1O [Synthetic Example 12, 1-{1-[5-(4-chlorophenyl)-4-hydroxy-thiophen-3-yl]-ethilidene-hydrazinothiocarbonyl}-piperidine-4-carboxylic acid] and CC(=NNC(=S)N1CCC(C(=O)O)CC1)c1csc(-c2cccc(Cl)c2)c1O [Synthetic Example 15, 1-{1-[5-(3-chlorophenyl)-4-hydroxythiophen-3-yl]-ethylidene-hydrazinothiocarbonyl}-piperidine-4-carboxylic acid] are within 1.5-fold of each other in EC50: 4.79 nM for the first, 5.94 nM for the second.

CC(=NNC(=S)N1CCC(C(=O)O)CC1)c1csc(-c2ccc(C)c(C)c2)c1O [Synthetic Example 13, 1-{1-[5-(3,4-dimethylphenyl)-4-hydroxythiophen-3-yl]-ethylidene-hydrazinothiocarbonyl}-piperidine-4-carboxylic acid] and CC(=NNC(=S)N1CCC(C(=O)O)CC1)c1csc(-c2ccc(C(C)(C)C)cc2)c1O [Synthetic Example 14, 1-{1-[5-(4-t-butylphenyl)-4-hydroxy-thiophen-3-yl]-ethylidene-hydrazinothiocarbonyl}-piperidine-4-carboxylic acid] are within 1.5-fold of each other in EC50: 6.02 nM for the first, 5.66 nM for the second.

Compared with CC(=NNC(=S)N1CCC(C(=O)O)CC1)c1nn(C)c(-c2ccc(C(F)(F)F)cc2)c1O [Synthetic Example 16, 1-{1-[4-hydroxy-1-methyl-5-(4-trifluoromethylphenyl)-1H-pyrazol-3-yl]-ethylidene-hydrazinothiocarbonyl}-piperidine-4-carboxylic acid], CC(=NNC(=S)N1CCC(C(=O)O)CC1)c1nn(C)c(-c2ccc(Cl)c(Cl)c2)c1O [Synthetic Example 17, 1-{1-[5-(3,4-dichlorophenyl)-4-hydroxy-1-methyl-1H-pyrazol-3-yl]-ethylidene-hydrazinothiocarbonyl}-piperidine-4-carboxylic acid] is 2.1-fold higher in EC50: 8.09 nM for the first, 16.6 nM for the second.

CC(=NNC(=S)N1CCCC(C(=O)O)C1)c1csc(-c2ccc(Cl)c(Cl)c2)c1O (centres unmarked) [Synthetic Example 18, 1-{1-[5-(3,4-dichlorophenyl)-4-hydroxythiophen-3-yl]-ethylidene-hydrazinothiocarbonyl}-piperidine-3-carboxylic acid] and CC(=NNC(=S)N1CCCC(O)C1)c1csc(-c2ccc(Cl)c(Cl)c2)c1O (centres unmarked) [Synthetic Example 21, 1-{1-[5-(3,4-dichlorophenyl)-4-hydroxythiophen-3-yl]-ethylidene-hydrazinothiocarbonyl}-piperidin-3-ol] are within 1.5-fold of each other in EC50: 46.6 nM for the first, 51.8 nM for the second.

First: CCN(CC)C(=O)C1CCN(C(=S)NN=C(C)c2csc(-c3ccc(Cl)c(Cl)c3)c2O)CC1 [Synthetic Example 19, 1-{1-[5-(3,4-dichlorophenyl)-4-hydroxythiophen-3-yl]-ethylidene-hydrazinothiocarbonyl}-piperidine-4-carboxylic acid diethylamide]
Second: CC(=NNC(=S)N1CCC(O)CC1)c1csc(-c2ccc(Cl)c(Cl)c2)c1O [Synthetic Example 20, 1-{1-[5-(3,4-dichlorophenyl)-4-hydroxythiophen-3-yl]-ethylidene-hydrazinothiocarbonyl}-piperidin-4-ol]
The EC50 of the first is 7.1-fold higher: 49.3 nM for the first, 6.98 nM for the second.

Compared with CC(=NNC(=S)N1CCC(CO)CC1)c1csc(-c2ccc(Cl)c(Cl)c2)c1O [Synthetic Example 22, 1-{1-[5-(3,4-dichlorophenyl)-4-hydroxythiophen-3-yl]-ethylidene-hydrazinothiocarbonyl}-piperidine-4-methanol], COCCCNC(=S)NN=C(C)c1csc(-c2ccc(Cl)c(Cl)c2)c1O [Synthetic Example 23, 1-(2-{1-[5-(3,4-dichlorophenyl)-4-hydroxythiophen-3-yl]-ethylidene}-hydrazinocarbonothioyl)amino-3-methoxypropane] is 1.7-fold higher in EC50: 45.8 nM for the first, 76.3 nM for the second.

same assay, conditions: concluded from UT7/EPO-mpl versus UT7/EPO proliferation (FIG. 1, FIG. 2)

CC(=NNC(=S)NCC(=O)O)c1csc(-c2ccc(Cl)c(Cl)c2)c1O [Synthetic Example 4, 2-[(2-{1-[5-(3,4-dichlorophenyl)-4-hydroxythiophen-3-yl]-etylidene}-hydrazinocarbonothioyl)amino]acetic acid] was tested, and the “selectivity of action on the TPO receptor” value was “acts on the TPO receptor selectively as an activator”.
